Patent US20160318987A1 (MEDIMMUNE LIMITED, priority 2013, published 2016)
Entries after “also recorded” stand apart in the source; their conditions may differ. Where a SMILES comes first, the peptide text is derived from it. [ ]: non-standard residue; d: D form. The star is where a group is joined. Palmitoyl = CCCCCCCCCCCCCCCC(=O)*; αMeF = C[C@](N)(Cc1ccccc1)C(=O)O; αMeK = C[C@](N)(CCCCN)C(=O)O; Aib = CC(C)(N)C(=O)O

Key:
Trypsin = test: 1 mg/mL lyophilized trypsin from porcine pancreas in 50 mM Tris, 10 mM CaCl2, 150 mM NaCl, 1 mM HCl, pH 7.8; details: 37° C., up to over 18 hours
[1] = test system: Neprilysin (Neutral endopeptidase, rhNEP); test: 1.0 μg rhNEP in 900 μL assay buffer: 50 mM Tris, 50 mM NaCl, 50 mM NaHCO3, pH 8.3; details: 37° C., up to 240 hours
[2] = test system: DPP-IV, Neprilysin, Chymotrypsin, Trypsin, Pepsin; test: enzyme resistance, protease panel (Table 2 description); format: in vitro ADME
Description: (§1) Peptides for evaluation were prepared to a concentration of 1.0 mg/mL solutions in either pure water, sterile saline for injection (0.9% w/v NaCl/water) or 1× PBS (Dulbecco). 100 μL (100 μg/mL peptide) of these solutions was added to 900 μL of each protease solution. Additional experiments were performed examining protein degradation during exposure to serum and gastric fluid. For serum studies, peptides were incubated with 50% female Sprague-Dawley strain rat serum (SD rat serum). For gastric fluid studies, peptides were incubated 1:1 (volume:volume), fresh rat gastric fluid.
(§2) The peptide and enzyme (or serum or gastric fluid) were co-incubated in a temperature regulated water bath at 37° C. for the duration of the experiment. During each experiment 100 μL aliquots (10 μg peptide) of the incubated peptide-enzyme mixture were withdrawn periodically, quenched by addition of an equal volume of 5% TFA (v/v) in 1:1 water/acetonitrile to arrest proteolytic activity, and analyzed by liquid chromatography-mass spectrometry (LC/MS): Agilent Polaris C8-A column (4.6×100 mm, 3 micron) using a linear binary gradient of 10-90% MeCN (0.1% TFA v/v) in water (0.1% TFA v/v) over 30 minutes at 1.5 mL min^−1 at ambient temperature. Analytes were detected by both UV absorption at 210 nm and ionization using a Waters 3100 mass detector (ESI^+ mode). New peptidic species (fragments) derived from enzymatic cleavage of peptides were analyzed post-process, and their molecular masses were used to identify the precise cleavage position (highlighting the scissile bond in each case).

hGIP-R = biological target: T1, hGIP-R (Homo sapiens, UniProt P48546); test: cAMP functional assay, cells expressing human GIP receptor (primary assay); format: cell-based; details: n = 2
T1 construct: expressed in transfected cells
T1 sequence (P48546 22-466): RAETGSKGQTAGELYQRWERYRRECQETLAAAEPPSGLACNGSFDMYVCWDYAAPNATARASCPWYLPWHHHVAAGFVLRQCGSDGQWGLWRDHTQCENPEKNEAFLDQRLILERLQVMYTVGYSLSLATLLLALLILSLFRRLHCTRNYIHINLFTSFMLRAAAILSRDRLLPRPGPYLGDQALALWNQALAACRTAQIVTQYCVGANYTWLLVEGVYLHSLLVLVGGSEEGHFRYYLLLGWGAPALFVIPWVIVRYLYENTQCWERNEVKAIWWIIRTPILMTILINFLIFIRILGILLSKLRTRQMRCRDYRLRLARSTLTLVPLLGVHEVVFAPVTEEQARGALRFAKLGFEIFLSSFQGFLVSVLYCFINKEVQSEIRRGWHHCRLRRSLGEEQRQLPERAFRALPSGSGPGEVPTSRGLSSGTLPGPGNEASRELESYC

[3] = gastric fluid stability study (LC/MS); format: in vitro ADME, rat
Description: as §1, §2

hGLP-1R = biological target: T2, hGLP-1R (Homo sapiens, UniProt P43220); test: cAMP functional assay, cells expressing human GLP-1 receptor (primary assay); format: cell-based; details: for EC50: n = 2
T2 construct: expressed in transfected cells
T2 sequence (P43220 24-463): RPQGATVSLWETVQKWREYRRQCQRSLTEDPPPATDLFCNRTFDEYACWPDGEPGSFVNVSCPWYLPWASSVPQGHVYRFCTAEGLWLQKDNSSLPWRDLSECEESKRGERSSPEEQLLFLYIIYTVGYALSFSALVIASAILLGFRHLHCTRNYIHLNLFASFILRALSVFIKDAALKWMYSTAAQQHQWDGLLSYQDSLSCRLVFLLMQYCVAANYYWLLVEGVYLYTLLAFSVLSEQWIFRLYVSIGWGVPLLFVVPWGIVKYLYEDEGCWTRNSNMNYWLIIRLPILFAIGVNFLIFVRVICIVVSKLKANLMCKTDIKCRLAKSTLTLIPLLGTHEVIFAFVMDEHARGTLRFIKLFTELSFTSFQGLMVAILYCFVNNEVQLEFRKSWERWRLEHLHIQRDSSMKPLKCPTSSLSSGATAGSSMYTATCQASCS

hGluc-R = biological target: T3, hGluc-R (Homo sapiens, UniProt P47871); test: cAMP functional assay, cells expressing human glucagon receptor (primary assay); format: cell-based; details: n = 2
T3 construct: expressed in transfected cells
T3 sequence (P47871 26-477): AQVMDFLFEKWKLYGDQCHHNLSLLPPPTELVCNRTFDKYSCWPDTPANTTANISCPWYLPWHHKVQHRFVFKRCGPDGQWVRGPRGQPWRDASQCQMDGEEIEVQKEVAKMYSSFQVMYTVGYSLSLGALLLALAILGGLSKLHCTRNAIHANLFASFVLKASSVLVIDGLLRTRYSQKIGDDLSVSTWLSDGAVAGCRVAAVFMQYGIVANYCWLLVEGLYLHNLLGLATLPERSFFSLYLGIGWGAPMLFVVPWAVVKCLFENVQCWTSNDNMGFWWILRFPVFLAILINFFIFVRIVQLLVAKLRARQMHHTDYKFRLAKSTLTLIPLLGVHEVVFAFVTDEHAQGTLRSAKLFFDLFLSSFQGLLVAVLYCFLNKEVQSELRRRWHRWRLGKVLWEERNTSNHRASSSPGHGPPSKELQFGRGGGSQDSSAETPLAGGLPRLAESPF

Chymotrypsin (rhCTRC) [4] = test: 1.0 μg rhCTRC in 900 μL assay buffer: 50 mM Tris, 10 mM CaCl2, 150 mM NaCl, 1 mM HCl, pH 7.8; details: 37° C., up to over 60 hours
[5] = test system: Trypsin, Sigma P7409 (Type II-S); test: 1 mg/mL lyophilized trypsin from porcine pancreas in 50 mM Tris, 10 mM CaCl2, 150 mM NaCl, 1 mM HCl, pH 7.8; details: 37° C., up to over 18 hours
Chymotrypsin (rhCTRC) [6] = biological target: T4, Chymotrypsin (rhCTRC) (Homo sapiens, UniProt Q99895); test: chymotrypsin stability study (LC/MS); format: in vitro ADME; details: chymotrypsin
T4 construct: purchased R&D Systems 6907-SE-010
T4 sequence (Q99895 30-268): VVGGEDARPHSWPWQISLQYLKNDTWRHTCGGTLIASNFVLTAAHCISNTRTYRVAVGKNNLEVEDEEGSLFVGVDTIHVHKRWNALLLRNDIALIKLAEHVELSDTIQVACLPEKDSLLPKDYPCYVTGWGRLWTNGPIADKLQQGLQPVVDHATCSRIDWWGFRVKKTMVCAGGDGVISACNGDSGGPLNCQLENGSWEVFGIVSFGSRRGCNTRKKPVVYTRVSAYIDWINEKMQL
Description: as §1, §2

Neprilysin (rhNEP) = biological target: T5, Neprilysin (rhNEP) (Homo sapiens, UniProt P08473); test: neprilysin stability study (LC/MS); format: in vitro ADME; details: for Neprilysin resistance (Discussion / Description): Table 2 description
T5 construct: purchased R&D Systems 1182-ZNC-010
T5 sequence (P08473 52-750 limits assumed): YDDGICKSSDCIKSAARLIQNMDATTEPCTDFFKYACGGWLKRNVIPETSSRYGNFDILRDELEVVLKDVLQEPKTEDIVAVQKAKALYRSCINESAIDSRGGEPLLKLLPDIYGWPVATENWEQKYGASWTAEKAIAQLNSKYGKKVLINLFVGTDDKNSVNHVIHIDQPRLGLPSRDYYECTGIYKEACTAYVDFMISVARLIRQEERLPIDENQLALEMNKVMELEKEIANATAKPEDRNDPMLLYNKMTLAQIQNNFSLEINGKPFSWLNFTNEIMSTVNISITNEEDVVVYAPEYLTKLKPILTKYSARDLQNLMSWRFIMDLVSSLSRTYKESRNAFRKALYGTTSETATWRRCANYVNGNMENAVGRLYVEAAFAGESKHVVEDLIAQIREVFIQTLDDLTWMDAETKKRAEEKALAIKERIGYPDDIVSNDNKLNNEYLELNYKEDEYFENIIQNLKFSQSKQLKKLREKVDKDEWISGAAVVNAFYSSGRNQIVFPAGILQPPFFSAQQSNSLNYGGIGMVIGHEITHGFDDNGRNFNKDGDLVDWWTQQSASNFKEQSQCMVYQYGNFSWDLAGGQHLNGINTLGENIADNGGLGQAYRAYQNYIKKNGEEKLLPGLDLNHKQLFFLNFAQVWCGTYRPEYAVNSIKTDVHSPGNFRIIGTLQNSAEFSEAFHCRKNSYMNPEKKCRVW
Description: as §1, §2

[7] = biological target: T6, trypsin from porcine pancreas (Sus scrofa, UniProt P00761); test: trypsin stability study (LC/MS); format: in vitro ADME; details: for Trypsin resistance/susceptibility (Discussion / Description): Table 2 description
T6 construct: purchased Sigma P7409; host or cells: porcine pancreas
T6 sequence (P00761 9-231): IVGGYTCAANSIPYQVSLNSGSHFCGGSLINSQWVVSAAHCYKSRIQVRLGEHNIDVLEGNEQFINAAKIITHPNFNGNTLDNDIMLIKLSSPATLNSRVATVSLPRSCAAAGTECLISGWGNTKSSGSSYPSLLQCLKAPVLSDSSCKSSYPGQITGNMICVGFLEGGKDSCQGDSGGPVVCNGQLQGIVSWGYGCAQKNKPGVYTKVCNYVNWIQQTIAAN
Description: as §1, §2

[8] = serum stability study (LC/MS); format: in vitro ADME; details: female, Sprague-Dawley; 50% SD rat serum, after 60 hours; read-out: peptide remaining intact
Description: as §1
as §2, with “New peptidic species (fragments) derived from enzymatic cleavage of peptides were analyzed post-process, and their molecular masses were used to identify the precise cleavage position (highlighting the scissile bond in each case).” left out

Compound: H-(Aib)^2-EGT^5 FTSDV^10 SSYLE^15 GQAAK^20 EFIAW^25 LVKGR^30
- cleaved bond (Trypsin): Lys20-E21, by 90 minutes; also recorded: Lys28-G29, by 90 minutes
- cleaved bond [1]: T5-Phe6; also recorded: S12-Tyr13; also recorded: E21-Phe22; also recorded: A24-Trp25

Compound: CCCCCCCCCCCCCCCC(=O)NCCCC[C@H](NC(=O)CNC(=O)CNC(=O)[C@](C)(CCCCN)NC(=O)[C@@H](NC(=O)[C@@H](NC(=O)[C@](C)(Cc1ccccc1)NC(=O)[C@H](C)NC(=O)[C@@H](NC(=O)[C@](C)(Cc1ccccc1)NC(=O)[C@H](CCC(=O)O)NC(=O)[C@](C)(CCCCN)NC(=O)[C@H](C)NC(=O)[C@H](C)NC(=O)[C@H](CCC(N)=O)NC(=O)CNC(=O)[C@H](CCC(=O)O)NC(=O)[C@H](CC(C)C)NC(=O)[C@](C)(Cc1ccccc1)NC(=O)[C@H](CO)NC(=O)[C@H](CO)NC(=O)[C@@H](NC(=O)[C@H](CC(=O)O)NC(=O)[C@H](CO)NC(=O)[C@@H](NC(=O)[C@](C)(Cc1ccccc1)NC(=O)[C@H](CO)NC(=O)CNC(=O)[C@H](CCC(=O)O)NC(=O)C(C)(C)NC(=O)[C@@H](N)Cc1c[nH]cn1)[C@@H](C)O)C(C)C)[C@@H](C)CC)C(C)C)C(C)C)C(N)=O [SEQ ID NO: 52, H-(Aib)^2-EG-(S)^5-(α-MeF)^6-TSDV^10 SS-(α-MeF)^13-LE^15 GQAA-(α-MeK)^20 E-(α-MeF)^22-IA-(α-MeF)^25-(V)^26-V-(α-MeK)^28-G-(G)^30-K(Ε-Palm)] (H-H[Aib]EGS[αMeF]TSDVSS[αMeF]LEGQAA[αMeK]E[αMeF]IA[αMeF]VV[αMeK]GGK(Palmitoyl)-NH2)
- enzyme resistance (DPP-IV, Neprilysin, Chymotrypsin, Trypsin, Pepsin) [2]: excellent enzyme resistance
- EC50 (hGIP-R): 93.1 nM
- stability relative to Liraglutide ([3]; rat gastric fluid 1:1): significantly exceeds
- stability relative to lipidated comparator SEQ ID NO: 5 ([3]; rat gastric fluid 1:1): significantly exceeds
- spectrum over the time course ([3]; rat gastric fluid, zoomed spectra): virtually unchanged spectrum
- EC50 (hGLP-1R): 0.41 nM
- EC50 (hGluc-R): 93.1 nM

Compound: H-(Aib)^2-EG-(S)^5-(α-MeF)^6-TSDV^10 SS-(α-MeF)^13-LE^15 GQAA-(α-MeK)^20 E-(α-MeF)^22-IA-(α-MeF)^25-(V)^26-V-(α-MeK)^28-G-(G)30
- not cleaved (Chymotrypsin (rhCTRC) [4]): stability for over 60 hours, with no major cleavage products observed
- not cleaved (Trypsin): significantly extended stability for over 18 hours

Compound: H-(Aib)^2-EG-(S)^5-(α-MeF)^6-TSDV^10 SS-(α-MeF)^13-LE^15 GQAAK^20 E-(α-MeF)^22-IA-(α-MeF)^25 LVKGR^30
- cleaved bond (Chymotrypsin (rhCTRC) [4]): Leu26-Val27, by 48 hours
- cleaved bond (Trypsin): Lys20-E21, by 90 minutes; also recorded: Lys28-G29, by 90 minutes
- not cleaved [1]: no proteolytic degradation over a 96 hour time-course; still stable after 10 days

Compound: H-(Aib)^2-EG-(S)^5-(α-MeF)^6-TSDV^10 SS-(α-MeF)^13-LE^15 GQAAK^20 E-(α-MeF)^22-IA-(α-MeF)^25 L-(Aib)^27-K-(Aib)^29-R^30
- not cleaved [5]: intact

Compound: CC[C@H](C)[C@H](NC(=O)[C@](C)(Cc1ccccc1)NC(=O)[C@H](CCC(=O)O)NC(=O)[C@H](CCCCN)NC(=O)[C@H](C)NC(=O)[C@H](C)NC(=O)[C@H](CCC(N)=O)NC(=O)CNC(=O)[C@H](CCC(=O)O)NC(=O)[C@H](CC(C)C)NC(=O)[C@](C)(Cc1ccccc1)NC(=O)[C@H](CO)NC(=O)[C@H](CO)NC(=O)[C@@H](NC(=O)[C@H](CC(=O)O)NC(=O)[C@H](CO)NC(=O)[C@@H](NC(=O)[C@](C)(Cc1ccccc1)NC(=O)[C@H](CO)NC(=O)CNC(=O)[C@H](CCC(=O)O)NC(=O)C(C)(C)NC(=O)[C@@H](N)Cc1c[nH]cn1)[C@@H](C)O)C(C)C)C(=O)N[C@@H](C)C(=O)N[C@@](C)(Cc1ccccc1)C(=O)N[C@@H](CC(C)C)C(=O)N[C@H](C(=O)N[C@@H](CCCCN)C(=O)NCC(=O)N[C@@H](CCCNC(=N)N)C(N)=O)C(C)C [SEQ ID NO: 38, H-(Aib)^2-EG-(S)^5-(α-MeF)^6-TSDV^10 SS-(α-MeF)^13-LE^15 GQAAK^20 E-(α-MeF)^22-IA-(α-MeF)^25 LVKGR^30] (H-H[Aib]EGS[αMeF]TSDVSS[αMeF]LEGQAAKE[αMeF]IA[αMeF]LVKGR-NH2)
- EC50 (hGIP-R): 102 nM
- potency compared to the GLP-1 comparator peptide, SEQ ID NO:4 (hGLP-1R): equipotent
- EC50 (hGLP-1R): 0.0338 nM
- cleavage site observed (Chymotrypsin (rhCTRC) [6]): solely at the Leu26/Val27
- time by which degradation occurred (Chymotrypsin (rhCTRC) [6]; 37° C.): ≤ 48 h
- Neprilysin resistance (Discussion / Description) (Neprilysin (rhNEP)): fully Neprilysin resistant but
- proteolytic degradation over time-course (Neprilysin (rhNEP); neprilysin, 96 hour time-course): no proteolytic degradation
- stability after prolonged exposure (Neprilysin (rhNEP); neprilysin, after 10 days (240 hours)): still stable
- Trypsin resistance/susceptibility (Discussion / Description) [7]: Trypsin susceptibility
- time by which proteolytic degradation occurred (carboxyl side of Lys20, Lys28 and Arg30) ([7]; trypsin, 37° C.): ≤ 90 min
- remaining at 60 h, 100 μg/mL [8]: ~64%

Compound: CC[C@H](C)[C@H](NC(=O)[C@](C)(Cc1ccccc1)NC(=O)[C@H](CCC(=O)O)NC(=O)[C@](C)(CCCCN)NC(=O)[C@H](C)NC(=O)[C@H](C)NC(=O)[C@H](CCC(N)=O)NC(=O)CNC(=O)[C@H](CCC(=O)O)NC(=O)[C@H](CC(C)C)NC(=O)[C@](C)(Cc1ccccc1)NC(=O)[C@H](CO)NC(=O)[C@H](CO)NC(=O)[C@@H](NC(=O)[C@H](CC(=O)O)NC(=O)[C@H](CO)NC(=O)[C@@H](NC(=O)[C@](C)(Cc1ccccc1)NC(=O)[C@H](CO)NC(=O)CNC(=O)[C@H](CCC(=O)O)NC(=O)C(C)(C)NC(=O)[C@@H](N)Cc1c[nH]cn1)[C@@H](C)O)C(C)C)C(=O)N[C@@H](C)C(=O)N[C@@](C)(Cc1ccccc1)C(=O)N[C@@H](CC(C)C)C(=O)N[C@H](C(=O)N[C@@](C)(CCCCN)C(=O)NCC(=O)NCC(N)=O)C(C)C [SEQ ID NO: 46, H-(Aib)^2-EG-(S)^5-(α-MeF)^6-TSDV^10 SS-(α-MeF)^13-LE^15 GQAA-(α-MeK)^20 E-(α-MeF)^22-IA-(α-MeF)^25 LV-(α-MeK)^28-G-(G)^30] (H-H[Aib]EGS[αMeF]TSDVSS[αMeF]LEGQAA[αMeK]E[αMeF]IA[αMeF]LV[αMeK]GG-NH2)
- EC50 (hGIP-R): 103 nM
- EC50 (hGLP-1R): 0.0141 nM
- EC50 (hGluc-R): 103 nM
- Neprilysin resistance (Discussion / Description) (Neprilysin (rhNEP)): resistance, maintaining
- Trypsin resistance/susceptibility (Discussion / Description) [7]: resistance, maintaining
